Reference: ChEMBL document CHEMBL3758169, “4-Aminoindazolyl-dihydrofuro[3,4-d]pyrimidines as non-covalent inhibitors of mutant epidermal growth factor receptor tyrosine kinase” (Bioorg Med Chem Lett, 2016)

What was measured:
Hepatocyte = assay: Drug metabolism in rat hepatocytes assessed as glucuronidation; type: ADME, cell-based
[1] = biological target: Mitogen-activated protein kinase 11 (Homo sapiens) (UniProt Q15759); assay: Inhibition of p38beta(unknown origin) at 100 nM
[2] = biological target: Sphingosine kinase 2 (Homo sapiens) (UniProt Q9NRA0); assay: Inhibition of SPHK2 (unknown origin) at 100 nM
Chain of Sphingosine kinase 2 (Homo sapiens) (Q9NRA0 whole entry): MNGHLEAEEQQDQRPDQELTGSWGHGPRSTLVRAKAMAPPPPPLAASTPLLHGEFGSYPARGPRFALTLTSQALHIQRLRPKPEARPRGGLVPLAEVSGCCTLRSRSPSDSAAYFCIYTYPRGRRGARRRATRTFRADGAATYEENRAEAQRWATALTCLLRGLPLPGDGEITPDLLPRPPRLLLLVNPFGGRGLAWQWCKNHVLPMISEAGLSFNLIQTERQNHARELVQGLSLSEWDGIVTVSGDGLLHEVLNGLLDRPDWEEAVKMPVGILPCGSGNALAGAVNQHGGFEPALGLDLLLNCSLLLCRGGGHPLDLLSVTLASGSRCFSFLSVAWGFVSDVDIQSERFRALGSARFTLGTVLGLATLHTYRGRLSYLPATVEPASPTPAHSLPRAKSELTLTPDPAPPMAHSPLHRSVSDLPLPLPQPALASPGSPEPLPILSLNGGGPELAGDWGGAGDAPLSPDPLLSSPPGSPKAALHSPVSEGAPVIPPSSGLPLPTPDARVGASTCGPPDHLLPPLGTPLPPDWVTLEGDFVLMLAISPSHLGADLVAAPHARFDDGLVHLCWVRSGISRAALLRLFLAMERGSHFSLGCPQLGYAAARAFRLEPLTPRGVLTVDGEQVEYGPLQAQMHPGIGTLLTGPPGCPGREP

[3] = biological target: Serine/threonine-protein kinase MRCK beta (Homo sapiens) (UniProt Q9Y5S2); assay: Inhibition of MRCKbeta (unknown origin) at 100 nM
[4] = biological target: Dual specificity mitogen-activated protein kinase kinase 2 (Homo sapiens) (UniProt P36507); assay: Inhibition of MEK2 (unknown origin) at 100 nM
[5] = biological target: Ephrin type-B receptor 4 (Homo sapiens) (UniProt P54760); assay: Inhibition of EPHB4 (unknown origin) at 100 nM
[6] = biological target: Muscle, skeletal receptor tyrosine-protein kinase (Homo sapiens) (UniProt O15146); assay: Inhibition of MUSK (unknown origin) at 100 nM
[7] = biological target: Calcium/calmodulin-dependent protein kinase type II subunit beta (Homo sapiens) (UniProt Q13554); assay: Inhibition of CaMKIIbeta (unknown origin) at 100 nM
[8] = biological target: cGMP-dependent protein kinase 2 (Homo sapiens) (UniProt Q13237); assay: Inhibition of PKG2 (unknown origin) at 100 nM
[9] = biological target: Ephrin type-B receptor 3 (Homo sapiens) (UniProt P54753); assay: Inhibition of EPHB3 (unknown origin) at 100 nM
Chain of Ephrin type-B receptor 3 (Homo sapiens) (P54753 whole entry): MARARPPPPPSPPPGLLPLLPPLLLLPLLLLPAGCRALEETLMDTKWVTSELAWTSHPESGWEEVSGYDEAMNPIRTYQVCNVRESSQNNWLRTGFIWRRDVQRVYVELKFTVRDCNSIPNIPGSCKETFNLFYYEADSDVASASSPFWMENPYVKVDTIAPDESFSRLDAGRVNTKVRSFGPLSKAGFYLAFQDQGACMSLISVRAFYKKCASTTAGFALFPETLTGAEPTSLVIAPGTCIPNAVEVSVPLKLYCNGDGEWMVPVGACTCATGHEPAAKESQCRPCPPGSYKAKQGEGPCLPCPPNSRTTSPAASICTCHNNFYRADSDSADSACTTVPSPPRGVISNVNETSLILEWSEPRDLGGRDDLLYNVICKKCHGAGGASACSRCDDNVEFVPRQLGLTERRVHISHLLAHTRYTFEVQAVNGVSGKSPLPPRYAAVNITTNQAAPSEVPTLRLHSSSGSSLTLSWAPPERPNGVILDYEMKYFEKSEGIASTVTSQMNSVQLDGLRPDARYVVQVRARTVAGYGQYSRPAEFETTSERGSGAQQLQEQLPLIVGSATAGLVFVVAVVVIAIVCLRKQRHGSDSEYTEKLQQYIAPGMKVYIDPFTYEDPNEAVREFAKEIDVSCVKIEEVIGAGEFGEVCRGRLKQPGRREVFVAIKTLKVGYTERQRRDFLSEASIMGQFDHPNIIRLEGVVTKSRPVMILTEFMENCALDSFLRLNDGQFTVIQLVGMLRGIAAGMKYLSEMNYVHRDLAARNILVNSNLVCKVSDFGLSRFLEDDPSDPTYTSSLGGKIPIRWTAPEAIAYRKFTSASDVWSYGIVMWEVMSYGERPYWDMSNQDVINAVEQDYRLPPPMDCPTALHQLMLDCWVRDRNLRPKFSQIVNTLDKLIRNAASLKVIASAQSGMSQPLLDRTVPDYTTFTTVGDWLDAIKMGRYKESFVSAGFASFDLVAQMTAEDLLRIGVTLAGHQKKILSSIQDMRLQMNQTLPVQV

[10] = biological target: Serine/threonine-protein kinase NLK (Homo sapiens) (UniProt Q9UBE8); assay: Inhibition of NLK (unknown origin) at 100 nM
[11] = biological target: MAP kinase-activated protein kinase 5 (Homo sapiens) (UniProt Q8IW41); assay: Inhibition of PRAK (unknown origin) at 100 nM
[12] = biological target: CDK9/cyclin T1 (Homo sapiens) (UniProt O60563+P50750); assay: Inhibition of CDK9/cyclinT1 (unknown origin) at 100 nM; type: protein-complex assay
[13] = biological target: Phosphorylase b kinase gamma catalytic chain, liver/testis isoform (Homo sapiens) (UniProt P15735); assay: Inhibition of PHKgamma2 (unknown origin) at 100 nM
Chain of Phosphorylase b kinase gamma catalytic chain, liver/testis isoform (Homo sapiens) (P15735 whole entry, canonical isoform): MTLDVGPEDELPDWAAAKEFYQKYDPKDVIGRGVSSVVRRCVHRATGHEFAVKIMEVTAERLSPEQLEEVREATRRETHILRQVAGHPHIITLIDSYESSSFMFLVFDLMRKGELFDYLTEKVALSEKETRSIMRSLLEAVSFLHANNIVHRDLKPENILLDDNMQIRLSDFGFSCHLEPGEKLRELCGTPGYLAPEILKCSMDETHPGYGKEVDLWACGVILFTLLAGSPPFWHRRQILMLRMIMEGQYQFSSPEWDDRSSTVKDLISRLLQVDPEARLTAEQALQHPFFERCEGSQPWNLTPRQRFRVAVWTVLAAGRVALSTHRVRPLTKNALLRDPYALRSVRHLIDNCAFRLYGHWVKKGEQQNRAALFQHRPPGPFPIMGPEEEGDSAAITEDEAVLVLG

[14] = biological target: Glycogen synthase kinase-3 alpha (Homo sapiens) (UniProt P49840); assay: Inhibition of GSK3aplha (unknown origin) at 100 nM
[15] = biological target: Protein kinase C epsilon type (Homo sapiens) (UniProt Q02156); assay: Inhibition of PKCepsilon (unknown origin) at 100 nM
[16] = biological target: Myotonin-protein kinase (Homo sapiens) (UniProt Q09013); assay: Inhibition of DMPK (unknown origin) at 100 nM
Chain of Myotonin-protein kinase (Homo sapiens) (Q09013 whole entry, the tested form may be a part): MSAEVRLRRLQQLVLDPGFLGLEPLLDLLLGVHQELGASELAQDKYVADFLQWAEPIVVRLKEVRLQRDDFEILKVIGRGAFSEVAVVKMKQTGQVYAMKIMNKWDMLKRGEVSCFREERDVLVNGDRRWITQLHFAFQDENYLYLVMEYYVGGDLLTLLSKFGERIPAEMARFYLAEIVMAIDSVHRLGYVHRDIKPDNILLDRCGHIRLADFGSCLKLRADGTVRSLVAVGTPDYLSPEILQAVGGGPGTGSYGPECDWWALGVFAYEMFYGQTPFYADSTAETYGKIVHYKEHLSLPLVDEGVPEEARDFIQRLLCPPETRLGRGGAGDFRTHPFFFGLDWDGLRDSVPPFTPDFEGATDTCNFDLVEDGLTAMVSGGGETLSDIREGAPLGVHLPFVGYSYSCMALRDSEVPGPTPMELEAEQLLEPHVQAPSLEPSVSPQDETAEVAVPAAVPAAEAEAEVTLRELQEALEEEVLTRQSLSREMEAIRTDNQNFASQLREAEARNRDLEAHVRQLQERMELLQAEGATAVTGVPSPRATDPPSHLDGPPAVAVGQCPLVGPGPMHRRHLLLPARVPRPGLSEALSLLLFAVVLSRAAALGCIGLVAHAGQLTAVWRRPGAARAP

[17] = biological target: Phosphatidylinositol 4-phosphate 3-kinase C2 domain-containing subunit alpha (Homo sapiens) (UniProt O00443); assay: Inhibition of PI3KC2A (unknown origin) at 100 nM
[18] = biological target: Serine/threonine-protein kinase 4 (Homo sapiens) (UniProt Q13043); assay: Inhibition of MST1 (unknown origin) at 100 nM
Chain of Serine/threonine-protein kinase 4 (Homo sapiens) (Q13043 whole entry, the tested form may be a part): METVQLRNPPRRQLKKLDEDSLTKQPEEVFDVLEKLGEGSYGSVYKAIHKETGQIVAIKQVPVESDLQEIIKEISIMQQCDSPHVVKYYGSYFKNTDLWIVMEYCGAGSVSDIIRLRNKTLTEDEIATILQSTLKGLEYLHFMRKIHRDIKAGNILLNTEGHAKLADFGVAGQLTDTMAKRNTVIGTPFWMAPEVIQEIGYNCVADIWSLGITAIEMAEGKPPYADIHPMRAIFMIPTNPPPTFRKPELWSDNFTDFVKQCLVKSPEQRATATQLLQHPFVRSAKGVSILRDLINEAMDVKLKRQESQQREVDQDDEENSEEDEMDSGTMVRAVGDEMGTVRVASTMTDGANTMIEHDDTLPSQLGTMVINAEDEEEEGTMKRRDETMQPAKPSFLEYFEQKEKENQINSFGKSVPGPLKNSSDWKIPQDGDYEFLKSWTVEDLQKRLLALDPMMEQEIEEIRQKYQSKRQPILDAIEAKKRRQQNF

[19] = biological target: LIM domain kinase 1 (Homo sapiens) (UniProt P53667); assay: Inhibition of LIMK1 (unknown origin) at 100 nM
[20] = biological target: Proto-oncogene tyrosine-protein kinase Src (Homo sapiens) (UniProt P12931); assay: Inhibition of SRCN1 (unknown origin) at 100 nM
[21] = biological target: Eukaryotic elongation factor 2 kinase (Homo sapiens) (UniProt O00418); assay: Inhibition of EEF2K (unknown origin) at 100 nM
[22] = biological target: Receptor tyrosine-protein kinase erbB-4 (Homo sapiens) (UniProt Q15303); assay: Inhibition of ERBB4 (unknown origin) at 100 nM
[23] = biological target: Calcium/calmodulin-dependent protein kinase type IV (Homo sapiens) (UniProt Q16566); assay: Inhibition of CamKIV (unknown origin) at 100 nM
[24] = biological target: Platelet-derived growth factor receptor alpha (Homo sapiens) (UniProt P16234); assay: Inhibition of PDGFRalpha (unknown origin) at 100 nM
Chain of Platelet-derived growth factor receptor alpha (Homo sapiens) (P16234 whole entry): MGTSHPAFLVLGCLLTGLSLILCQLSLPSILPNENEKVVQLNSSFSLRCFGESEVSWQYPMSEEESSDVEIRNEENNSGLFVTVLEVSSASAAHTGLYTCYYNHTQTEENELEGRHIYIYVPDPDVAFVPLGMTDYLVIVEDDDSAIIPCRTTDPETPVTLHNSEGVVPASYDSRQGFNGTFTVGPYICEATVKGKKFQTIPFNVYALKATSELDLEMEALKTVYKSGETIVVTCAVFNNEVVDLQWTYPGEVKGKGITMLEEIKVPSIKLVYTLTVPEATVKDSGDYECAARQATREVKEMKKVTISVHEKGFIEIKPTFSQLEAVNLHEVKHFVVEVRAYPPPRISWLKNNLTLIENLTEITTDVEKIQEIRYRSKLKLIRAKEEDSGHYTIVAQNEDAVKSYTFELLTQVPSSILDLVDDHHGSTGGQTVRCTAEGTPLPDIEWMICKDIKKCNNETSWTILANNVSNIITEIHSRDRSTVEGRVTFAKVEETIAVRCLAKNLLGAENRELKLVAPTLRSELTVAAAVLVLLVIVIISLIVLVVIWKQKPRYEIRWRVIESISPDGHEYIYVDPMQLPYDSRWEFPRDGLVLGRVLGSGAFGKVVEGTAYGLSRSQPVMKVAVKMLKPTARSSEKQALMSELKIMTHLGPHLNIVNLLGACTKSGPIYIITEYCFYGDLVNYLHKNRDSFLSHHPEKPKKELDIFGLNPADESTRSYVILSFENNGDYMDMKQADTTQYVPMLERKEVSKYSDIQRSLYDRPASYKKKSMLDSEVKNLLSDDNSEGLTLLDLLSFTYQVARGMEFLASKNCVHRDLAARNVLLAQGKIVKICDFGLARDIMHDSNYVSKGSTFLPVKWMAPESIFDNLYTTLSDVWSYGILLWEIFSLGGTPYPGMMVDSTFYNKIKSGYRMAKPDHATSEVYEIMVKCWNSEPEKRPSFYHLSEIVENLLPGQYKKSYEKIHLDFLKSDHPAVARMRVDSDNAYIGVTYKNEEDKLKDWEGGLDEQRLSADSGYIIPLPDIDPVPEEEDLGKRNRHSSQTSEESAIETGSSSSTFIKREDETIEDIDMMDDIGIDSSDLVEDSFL

[25] = Oral bioavailability in rat at 5 mg/kg; type: ADME, organism-based; conditions: in vivo
[26] = biological target: Serine/threonine-protein kinase pim-2 (Homo sapiens) (UniProt Q9P1W9); assay: Inhibition of PIM2 (unknown origin) at 100 nM
[27] = biological target: Serine/threonine-protein kinase PLK2 (Homo sapiens) (UniProt Q9NYY3); assay: Inhibition of PLK2 (unknown origin) at 100 nM
[28] = biological target: Protein kinase C gamma type (Homo sapiens) (UniProt P05129); assay: Inhibition of PKCgamma (unknown origin) at 100 nM
[29] = biological target: Casein kinase I isoform delta (Homo sapiens) (UniProt P48730); assay: Inhibition of CK1delta (unknown origin) at 100 nM
[30] = biological target: SRSF protein kinase 3 (Homo sapiens) (UniProt Q9UPE1); assay: Inhibition of MSSK1 (unknown origin) at 100 nM
[31] = biological target: Protein kinase C beta type (Homo sapiens) (UniProt P05771); assay: Inhibition of PKCbeta2 (unknown origin) at 100 nM
[32] = biological target: cAMP-dependent protein kinase catalytic subunit PRKX (Homo sapiens) (UniProt P51817); assay: Inhibition of PRKX (unknown origin) at 100 nM
[33] = biological target: Mitogen-activated protein kinase 14 (Homo sapiens) (UniProt Q16539); assay: Inhibition of p38alpha (unknown origin) at 100 nM
[34] = biological target: Serine/threonine-protein kinase BRSK1 (Homo sapiens) (UniProt Q8TDC3); assay: Inhibition of BRSK1 (unknown origin) at 100 nM
[35] = biological target: Serine/threonine-protein kinase Nek4 (Homo sapiens) (UniProt P51957); assay: Inhibition of NEK4 (unknown origin) at 100 nM
[36] = system: Platelet-derived growth factor receptor alpha (Homo sapiens), P16234 [D842V]; assay: Inhibition of PDGFRalpha D842V mutant (unknown origin) at 100 nM
Chain of Platelet-derived growth factor receptor alpha (Homo sapiens), P16234 [D842V] (P16234 whole entry D842V): as the sequence (P16234 whole entry) above, with D842V counted along it

[37] = biological target: Calcium/calmodulin-dependent protein kinase kinase 2 (Homo sapiens) (UniProt Q96RR4); assay: Inhibition of CAMKK2 (unknown origin) at 100 nM
Chain of Calcium/calmodulin-dependent protein kinase kinase 2 (Homo sapiens) (Q96RR4 2-588 limits assumed): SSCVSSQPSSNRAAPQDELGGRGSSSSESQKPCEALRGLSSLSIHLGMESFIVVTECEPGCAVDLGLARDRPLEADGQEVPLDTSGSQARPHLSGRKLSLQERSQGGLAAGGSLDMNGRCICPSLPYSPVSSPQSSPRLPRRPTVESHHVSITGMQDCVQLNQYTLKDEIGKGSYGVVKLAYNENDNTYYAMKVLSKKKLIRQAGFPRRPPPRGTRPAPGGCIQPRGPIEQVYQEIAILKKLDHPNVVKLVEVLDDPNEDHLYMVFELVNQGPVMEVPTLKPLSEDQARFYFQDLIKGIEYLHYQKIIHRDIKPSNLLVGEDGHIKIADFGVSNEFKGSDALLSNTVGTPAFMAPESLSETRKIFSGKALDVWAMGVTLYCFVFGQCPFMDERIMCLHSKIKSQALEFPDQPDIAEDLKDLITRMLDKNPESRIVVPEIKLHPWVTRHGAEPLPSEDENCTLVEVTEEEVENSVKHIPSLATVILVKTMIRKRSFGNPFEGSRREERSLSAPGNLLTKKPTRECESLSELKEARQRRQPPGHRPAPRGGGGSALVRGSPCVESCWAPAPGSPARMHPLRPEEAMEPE

[38] = biological target: RAC-gamma serine/threonine-protein kinase (Homo sapiens) (UniProt Q9Y243); assay: Inhibition of AKT3 (unknown origin) at 100 nM
[39] = biological target: G protein-coupled receptor kinase 5 (Homo sapiens) (UniProt P34947); assay: Inhibition of GRK5 (unknown origin) at 100 nM
[40] = biological target: Dual specificity protein kinase CLK4 (Homo sapiens) (UniProt Q9HAZ1); assay: Inhibition of CLK4 (unknown origin) at 100 nM
[41] = biological target: Serine/threonine-protein kinase PAK 6 (Homo sapiens) (UniProt Q9NQU5); assay: Inhibition of PAK6 (unknown origin) at 100 nM
[42] = biological target: Phosphorylase b kinase gamma catalytic chain, skeletal muscle/heart isoform (Homo sapiens) (UniProt Q16816); assay: Inhibition of PHKgamma1 (unknown origin) at 100 nM

Q: Which Drug metabolism (Hepatocyte) does the source give for `CC1(C)OCc2c(Nc3n[nH]c4c(Cl)cccc34)nc(-c3cn[nH]c3)nc21` here?
A: Its Drug metabolism is “metabolite_detected”.

Q: Which inhibition [1] does the source give for `CC1(C)OCc2c(Nc3n[nH]c4ccccc34)nc(-c3cn[nH]c3)nc21` here?
A: The inhibition was 8.7%.

Q: And the inhibition [2]?
A: Its inhibition is -9.8%.

Q: And the inhibition [3]?
A: Its inhibition is -3.9%.

Q: What about the inhibition [4] of the same compound?
A: Its inhibition is 12.8%.

Q: What about the inhibition [5] of the same compound?
A: Its inhibition is 40.7%.

Q: What about the inhibition [6] of the same compound?
A: The inhibition was 3.5%.

Q: What about the inhibition [7] of the same compound?
A: The inhibition was 11.2%.

Q: What about the inhibition [8] of the same compound?
A: The inhibition was -8.9%.

Q: And the inhibition [9]?
A: Its inhibition is 20.1%.

Q: What about the inhibition [10] of the same compound?
A: Its inhibition is -0.6%.

Q: What about the inhibition [11] of the same compound?
A: Its inhibition is 5.7%.

Q: And the inhibition [12]?
A: Its inhibition is -6.1%.

Q: What about the inhibition [13] of the same compound?
A: The inhibition was -2.9%.

Q: And the inhibition [14]?
A: Its inhibition is 30.8%.

Q: What about the inhibition [15] of the same compound?
A: Its inhibition is 4.9%.

Q: And the inhibition [16]?
A: The inhibition was 3.3%.

Q: And the inhibition [17]?
A: Its inhibition is 2.9%.

Q: And the inhibition [18]?
A: Its inhibition is 13.1%.

Q: And the inhibition [19]?
A: Its inhibition is 3.1%.

Q: What about the inhibition [20] of the same compound?
A: The inhibition was 47.2%.

Q: And the inhibition [21]?
A: The inhibition was 7.5%.

Q: What about the inhibition [22] of the same compound?
A: The inhibition was 89.9%.

Q: And the inhibition [23]?
A: Its inhibition is 15%.

Q: And the inhibition [24]?
A: The inhibition was 57.1%.

Q: What about the bioavailability [25] of the same compound?
A: The bioavailability was 13%.

Q: And the inhibition [26]?
A: Its inhibition is 3.1%.

Q: What about the inhibition [27] of the same compound?
A: Its inhibition is 5.5%.

Q: And the inhibition [28]?
A: The inhibition was 16.4%.

Q: What about the inhibition [29] of the same compound?
A: Its inhibition is 13.1%.

Q: What about the inhibition [30] of the same compound?
A: Its inhibition is -3.2%.

Q: What about the inhibition [31] of the same compound?
A: Its inhibition is 11.4%.

Q: And the inhibition [32]?
A: The inhibition was 8.4%.

Q: What about the inhibition [33] of the same compound?
A: Its inhibition is 44.5%.

Q: What about the inhibition [34] of the same compound?
A: The inhibition was 1.7%.

Q: What about the inhibition [35] of the same compound?
A: The inhibition was 2%.

Q: And the inhibition [36]?
A: Its inhibition is 77.3%.

Q: And the inhibition [37]?
A: Its inhibition is 1.8%.

Q: And the inhibition [38]?
A: The inhibition was 10.4%.

Q: What about the inhibition [39] of the same compound?
A: The inhibition was -1.4%.

Q: And the inhibition [40]?
A: The inhibition was 13.3%.

Q: What about the inhibition [41] of the same compound?
A: The inhibition was -0.3%.

Q: What about the inhibition [42] of the same compound?
A: Its inhibition is 8.5%.
